According to EPA's ToxRefDB 2:

Key:
[1] = system: dog; conditions: Sub-acute repeat dose toxicity, beagle, Oral, Gavage/Intubation, dose end: 4 week, group: systemic
[2] = system: rabbit; conditions: Prenatal developmental toxicity study; new zealand white; Oral; Gavage/Intubation; dose end: 19 GD; group: maternal; reproductive / offspring survival early / litter viability other / total litter loss + systemic / in life observation / body weight / body …
[3] = system: rat; conditions: Chronic toxicity, sprague dawley, Oral, Gavage/Intubation, dose end: 6 month, group: systemic
[4] = system: rabbit; conditions: Prenatal developmental toxicity study, new zealand white, Oral, Gavage/Intubation, dose end: 19 GD, group: maternal
[5] = system: rat; conditions: Prenatal developmental toxicity study, sprague dawley, Oral, Gavage/Intubation, dose end: 17 GD
[6] = system: rat; conditions: Sub-acute repeat dose toxicity, sprague dawley, Oral, Gavage/Intubation, dose end: 28 day, group: systemic
[7] = system: rat; conditions: Fertility (Segment I), sprague dawley, Oral, Gavage/Intubation, dose end: 7 GD
[8] = system: mouse; conditions: Carcinogenicity; b6c3f1; Oral; Water; dose end: 90 week; group: systemic; systemic / pathology microscopic / liver / adenoma/carcinoma combined + systemic / pathology microscopic / liver / carcinoma + systemic / …
[9] = system: rat; conditions: Carcinogenicity, other, Oral, Water, dose end: 110 week, group: systemic
[10] = system: rat; conditions: Developmental neurotoxicity study; other; Oral; Gavage/Intubation; dose end: 112 PND; group: cannot be grouped; systemic / in life observation / body weight / offspring (pup) weight gain
[11] = system: dog; conditions: Chronic toxicity; beagle; Oral; Feed; dose end: 104 week; group: cholinesterase; cholinesterase / cholinesterase / cholinesterase / erythrocyte cholinesterase (che) + cholinesterase / cholinesterase / cholinesterase / …
[12] = system: rat; conditions: Combined chronic toxicity/carcinogenicity, fischer, Oral, Feed, dose end: 105 week
[13] = system: mouse; conditions: Carcinogenicity, cd1, Oral, Feed, dose end: 108 week
[14] = system: dog; conditions: Chronic toxicity; beagle; Oral; Feed; dose end: 12 month; group: cholinesterase; cholinesterase / cholinesterase / cholinesterase / brain cholinesterase (che) + cholinesterase / cholinesterase / cholinesterase / …
[15] = system: rat; conditions: Prenatal developmental toxicity study, sprague dawley, Oral, Gavage/Intubation, dose end: 15 GD
[16] = system: dog; conditions: Chronic toxicity; beagle; Oral; Feed; dose end: 107 week; group: systemic; systemic / pathology gross / eye / [other] + systemic / pathology gross / eye / discolored + systemic / pathology microscopic / eye / [other…
[17] = system: rat; conditions: Carcinogenicity; fischer; Oral; Gavage/Intubation; dose end: 103 week; group: systemic; systemic / pathology microscopic / spleen / fibrosis + systemic / pathology microscopic / stomach / dysplasia + systemic / pathology …
[18] = system: rat; conditions: Sub-acute repeat dose toxicity, fischer, Oral, Gavage/Intubation, dose end: 16 day, group: systemic
[19] = system: mouse; conditions: Carcinogenicity, b6c3f1, Oral, Gavage/Intubation, dose end: 103 week, group: systemic
[20] = system: mouse; conditions: Prenatal developmental toxicity study; cd1; Oral; Gavage/Intubation; dose end: 15 GD; group: maternal; systemic / in life observation / clinical signs / ataxia + systemic / in life observation / mortality / mortality
[21] = system: mouse; conditions: Subchronic oral toxicity in rodents, b6c3f1, Gavage/Intubation, dose end: 13 week, group: systemic
[22] = system: rat; conditions: Subchronic oral toxicity in rodents, fischer, Gavage/Intubation, dose end: 13 week, group: systemic
[23] = system: mouse; conditions: Sub-acute repeat dose toxicity, b6c3f1, Oral, Gavage/Intubation, dose end: 16 day, group: systemic
[24] = systemic / in life observation / clinical signs / dialated pupils + systemic / in life observation / clinical signs / defecation (diarrhea)
[25] = systemic / in life observation / clinical signs / dialated pupils + systemic / in life observation / clinical signs / defecation (diarrhea…
[26] = systemic / clinical chemistry / cholesterol / cholesterol + systemic / clinical chemistry / phosphorus / phosphate + systemic / clinical …
[27] = systemic / in life observation / clinical signs / hunched posture + systemic / pathology microscopic / liver / hypertrophy + systemic / in …
[28] = systemic / in life observation / body weight / body weight gain + systemic / in life observation / food consumption / food consumption + …
[29] = group: developmental, systemic / in life observation / body weight / fetal weight
[30] = group: maternal, systemic / in life observation / body weight / body weight gain + systemic / in life observation / clinical signs / coma + systemic / in …
[31] = systemic / hematology / reticulocyte / reticulocyte + systemic / in life observation / clinical signs / hunched posture + systemic / in life…
[32] = systemic / in life observation / clinical signs / hunched posture + systemic / in life observation / clinical signs / piloerection
[33] = group: maternal, reproductive / reproductive performance / estrous cycle / abnormal
[34] = group: parental, systemic / in life observation / body weight / body weight gain + systemic / in life observation / clinical signs / hunched posture + …
[35] = systemic / pathology microscopic / kidney / degeneration + systemic / pathology microscopic / stomach / ulcer
[36] = systemic / pathology microscopic / kidney / degeneration + systemic / pathology microscopic / stomach / ulcer + systemic / pathology …
[37] = group: cholinesterase, cholinesterase / cholinesterase / cholinesterase / brain cholinesterase (che) + cholinesterase / cholinesterase / cholinesterase / …
[38] = group: systemic, systemic / pathology gross / harderian gland / degeneration + systemic / in life observation / body weight / body weight + systemic / in …
[39] = group: systemic, systemic / organ weight / kidney / relative to body weight + systemic / pathology microscopic / heart / lymphoma malignant
[40] = group: systemic, systemic / organ weight / kidney / relative to body weight + systemic / pathology microscopic / heart / lymphoma malignant + systemic / …
[41] = group: cholinesterase, cholinesterase / cholinesterase / cholinesterase / erythrocyte cholinesterase (che) + cholinesterase / cholinesterase / cholinesterase / …
[42] = group: developmental, developmental / developmental malformation / bone / incomplete ossification
[43] = systemic / in life observation / body weight / body weight
[44] = systemic / in life observation / body weight / body weight + systemic / in life observation / mortality / mortality + systemic / pathology …
[45] = systemic / in life observation / body weight / body weight + systemic / pathology microscopic / harderian gland / adenoma + systemic / …
[46] = systemic / in life observation / body weight / body weight + systemic / pathology gross / sperm measure / sperm count + systemic / pathology…
[47] = systemic / pathology gross / sperm measure / sperm count + systemic / pathology gross / sperm measure / sperm motility + systemic / …
[48] = systemic / pathology gross / sperm measure / sperm count + systemic / pathology gross / sperm measure / sperm motility
[49] = systemic / in life observation / body weight / body weight + systemic / in life observation / clinical signs / defecation (diarrhea) + …

## O=C(N[C@@H](c1ccccc1)[C@@H]1CCCCN1)c1cccc(C(F)(F)F)c1Cl
[1]; [24]
  LEL: 1 mg/kg/day
  NEL: < 1 mg/kg/day
[1]; [25]
  LOAEL: > 10 mg/kg/day
  NOAEL: ≥ 10 mg/kg/day
[2]
  LEL: 30 mg/kg/day
  LOAEL: 30 mg/kg/day
  NEL: 10 mg/kg/day
  NOAEL: 10 mg/kg/day
[3]; [26]
  LOAEL: > 50 mg/kg/day
  NOAEL: ≥ 50 mg/kg/day
[3]; [27]
  LEL: 5 mg/kg/day
  NEL: < 5 mg/kg/day
[4]; systemic / in life observation / body weight / body weight gain + systemic / in life observation / food consumption / food consumption
  LEL: 15 mg/kg/day
[4]; [28]
  LOAEL: > 30 mg/kg/day
  NEL: 5 mg/kg/day
  NOAEL: ≥ 30 mg/kg/day
[5]; [29]
  LEL: 25 mg/kg/day
  LOAEL: 25 mg/kg/day
  NEL: 5 mg/kg/day
  NOAEL: 5 mg/kg/day
[5]; group: maternal, systemic / in life observation / body weight / body weight gain
  LOAEL: 25 mg/kg/day
[5]; [30]
  NEL: 5 mg/kg/day
  NOAEL: 5 mg/kg/day
[5]; group: maternal, systemic / in life observation / body weight / body weight gain + systemic / in life observation / food consumption / food consumption
  LEL: 25 mg/kg/day
[6]; [31]
  LOAEL: 25 mg/kg/day
  NOAEL: 5 mg/kg/day
[6]; [32]
  LEL: 5 mg/kg/day
  NEL: < 5 mg/kg/day
[7]; [33]
  LEL: 50 mg/kg/day
  LOAEL: > 50 mg/kg/day
  NEL: 25 mg/kg/day
  NOAEL: ≥ 50 mg/kg/day
[7]; [34]
  LEL: 25 mg/kg/day
  LOAEL: 25 mg/kg/day
  NEL: 5 mg/kg/day
  NOAEL: 5 mg/kg/day

## C1COCCO1 [1,4-Dioxane]
[8]
  LEL: 380 mg/kg/day
  LOAEL: > 830 mg/kg/day
  NEL: < 380 mg/kg/day
  NOAEL: ≥ 830 mg/kg/day
[9]; [35]
  LOAEL: 240 mg/kg/day
  NOAEL: < 240 mg/kg/day
[9]; [36]
  LEL: 240 mg/kg/day
  NEL: < 240 mg/kg/day

## CN(C)CCCN1c2ccccc2Sc2ccc(Cl)cc21 [Chlorpromazine]
[10]
  LEL: 3 mg/kg/day
  LOAEL: > 9 mg/kg/day
  NEL: 1 mg/kg/day
  NOAEL: ≥ 9 mg/kg/day

## CCOP(=S)(OCC)SCCSCC [Disulfoton]
[11]
  LEL: 0.05 mg/kg/day
  LOAEL: 0.05 mg/kg/day
  NEL: 0.025 mg/kg/day
  NOAEL: 0.025 mg/kg/day
[12]; [37]
  LEL: 0.04 mg/kg/day
  LOAEL: 0.04 mg/kg/day
  NEL: < 0.04 mg/kg/day
  NOAEL: < 0.04 mg/kg/day
[12]; group: systemic, systemic / pathology gross / harderian gland / degeneration
  LOAEL: 0.65 mg/kg/day
[12]; [38]
  LEL: 0.65 mg/kg/day
  NEL: 0.165 mg/kg/day
  NOAEL: 0.165 mg/kg/day
[13]; [37]
  LEL: 2.4 mg/kg/day
  LOAEL: 2.4 mg/kg/day
  NEL: 0.6 mg/kg/day
  NOAEL: 0.6 mg/kg/day
[13]; [39]
  LEL: 0.15 mg/kg/day
  NEL: < 0.15 mg/kg/day
[13]; [40]
  LOAEL: > 2.4 mg/kg/day
  NOAEL: ≥ 2.4 mg/kg/day
[14]
  LEL: 0.094 mg/kg/day
  LOAEL: 0.094 mg/kg/day
  NEL: 0.013 mg/kg/day
  NOAEL: 0.013 mg/kg/day
[15]; [41]
  LEL: 0.3 mg/kg/day
  LOAEL: 0.3 mg/kg/day
  NEL: 0.1 mg/kg/day
  NOAEL: 0.1 mg/kg/day
[15]; [42]
  LEL: 1 mg/kg/day
  LOAEL: 1 mg/kg/day
  NEL: 0.3 mg/kg/day
  NOAEL: 0.3 mg/kg/day
[16]
  LEL: 1.5 mg/kg/day
  LOAEL: 1.5 mg/kg/day
  NEL: 0.0375 mg/kg/day
  NOAEL: 0.0375 mg/kg/day

## OCC1CO1 (configuration not stated) [Glycidol]
[17]
  LEL: 37.5 mg/kg/day
  LOAEL: 37.5 mg/kg/day
  NEL: < 37.5 mg/kg/day
  NOAEL: < 37.5 mg/kg/day
[18]; [43]
  LEL: 150 mg/kg/day
  LOAEL: 150 mg/kg/day
[18]; [44]
  NEL: 75 mg/kg/day
  NOAEL: 75 mg/kg/day
[19]; [45]
  LEL: 25 mg/kg/day
  NEL: < 25 mg/kg/day
  NOAEL: 25 mg/kg/day
[19]; systemic / in life observation / body weight / body weight + systemic / pathology microscopic / stomach / hyperplasia
  LOAEL: 50 mg/kg/day
[20]
  LEL: 200 mg/kg/day
  LOAEL: > 200 mg/kg/day
  NEL: 150 mg/kg/day
  NOAEL: ≥ 200 mg/kg/day
[21]; [46]
  LEL: 19 mg/kg/day
  NEL: < 19 mg/kg/day
[21]; [47]
  LOAEL: 75 mg/kg/day
  NOAEL: 38 mg/kg/day
[22]; systemic / in life observation / body weight / body weight + systemic / pathology microscopic / brain / necrosis + systemic / in life …
  NOAEL: 100 mg/kg/day
[22]; systemic / in life observation / body weight / body weight + systemic / pathology microscopic / brain / necrosis + systemic / pathology …
  LOAEL: 200 mg/kg/day
[22]; [48]
  LEL: 25 mg/kg/day
  NEL: < 25 mg/kg/day
[23]; systemic / in life observation / body weight / body weight + systemic / in life observation / clinical signs / defecation (diarrhea)
  LEL: 150 mg/kg/day
[23]; [49]
  LOAEL: > 600 mg/kg/day
  NEL: 75 mg/kg/day
  NOAEL: ≥ 600 mg/kg/day
